{
  "source": "patent US20240041899A1",
  "about": "“SOLID PREPARATION” (ASKA Pharmaceutical Co., Ltd., priority 2020, published 2024)",
  "key": {"[1]": {"system": "ovariectomized rats", "assay": "Test Example 5: antiprogesterone activity, uterine weight associated with rat deciduoma formation", "format": "in vivo", "procedure": "For the compound A and the compound D (mifepristone), the antiprogesterone activity was measured. Specifically, a sex hormone and a test substance were repeatedly administered to ovariectomized rats as a test system to examine the antiprogesterone action (antiprogesterone activity) based on, as an index, the fluctuation of the uterine weight (the inhibitory action relative to the increase of the weight) associated with rat deciduoma formation.\nMore specifically, rats (female, Crl:CD(SD), 5-week-old: Charles River Laboratories Japan, Inc.) were subjected to ovariectomy, and from one (1) week after the ovariectomy, a high dose estrone of 5 μg/one animal was hypodermically administered to the rats once a day for three (3) days. From the day after one day rest period, the rats received, once a day over eight (8) days, hypodermic administration of a low dose estrone (1 μg/one animal), intramuscular administration of progesterone (6 mg/kg), and oral administration of a test substance. In the middle of the administration, on Day 4 of the start of administration, the rats were subjected to a stimulation treatment of decidualization reaction to the right uterus. The day after the final administration, the uterine weight (right uterine body) was measured (n=6). Group E was subjected to ovariectomy and a stimulation treatment of decidualization reaction but was not subjected to a hormone treatment.\nGroup E: rats with ovariectomy without hormone treatment 0.5 v/v % Polysorbate 80 solution, 10 mL/kg (n=6) • Solvent group (control group): 0.5 v/v % Polysorbate 80 solution, 10 mL/kg (n=6) • Group A3: Compound A, 3 mg/kg (n=6) • Group A10: Compound A, 10 mg/kg (n=6) • Group A30: Compound A, 30 mg/kg (n=6) • Group D: Compound D (mifepristone), 3 mg/kg (n=6)"}, "[2]": {"system": "rats having the urination disorder associated with diabetes", "assay": "Test Example 4: urination disorder model associated with streptozocin-induced diabetes (tissue weights, blood glucose, cystometry, nomogram)", "format": "in vivo", "conditions": "for Bladder weight / Blood glucose level / Kidney weight / Prostate weight, dorsolateral prostate / Prostate weight, ventral prostate / Prostate weight, whole / Seminal vesicle weight: 4 weeks; for Bladder weight / Blood glucose level / Kidney weight / Prostate weight, dorsolateral prostate / Prostate weight, ventral prostate / Prostate weight, whole / Seminal vesicle weight / Body weight: average ± SD; for Dorsolateral prostate atrophy rate / Seminal vesicle atrophy rate / Ventral prostate atrophy rate / Whole prostate atrophy rate: relative to solvent group; for Body weight: model with induced diabetes (STZ), male rats", "procedure": "As described below, as a urination disorder model, a urination disorder model associated with diabetes was prepared to evaluate the urination disorder. This model has no benign prostatic hyperplasia and is a model of a urination disorder associated with neuropathy and smooth muscle contraction disorder.\nThe body weights of rats (male, Crl:CD(SD), 5-week-old; Charles River Laboratories Japan, Inc.) were measured. After the rats were fasted overnight, the blood was collected from the caudal vein to measure the fasting blood glucose. On the basis of the body weight and the fasting blood glucose level, the rats were grouped or divided into two (2) groups by randomized, multivariable block allocation. The day after the rats were grouped, a first group received intraperitoneal administration of a citrate buffer (pH 4.5) (10 mL/kg) having a concentration of 0.1 mmol/L, and a second group received intraperitoneal administration of streptozocin (STZ; Sigma-Aldrich) (50 mg/kg). Streptozocin (STZ) was administered in the form of a solution of streptozocin having a concentration of 5 mg/mL in the citrate buffer.\nAbout one (1) week after streptozocin (STZ) was administered, the body weight and the fasting blood glucose were measured. In the streptozocin (STZ) administration group (the second group), individuals having a fasting blood glucose level of not less than 300 mg/dL were used as animals with induced diabetes. These animals with induced diabetes are a model having no abnormality of the prostate (having no benign prostatic hyperplasia). On the basis of the body weight and the fasting blood glucose level, the animals (models) with induced diabetes were grouped or divided into three (3) groups by randomized, multivariable block allocation.\nTo the three model groups with induced diabetes, a 0.5 v/v % Polysorbate 80 solution (0.5% P) (10 mL/kg), the compound A (3 mg/kg), and the compound A (10 mg/kg) were orally administered, respectively, wherein the administration schedule in all groups was a frequency of once a day, only on weekdays, over four (4) weeks. Moreover, to the above-mentioned first group, a 0.5 v/v % Polysorbate 80 solution (0.5% P) (10 mL/kg) was orally administered in the same administration schedule (normal group). On the last day of administration, a cannula was inserted into and secured to the dome of the bladder under isoflurane anesthesia, and cystometry (Cystometogram, CMG) was conducted in the order of under awake condition and under urethane anesthesia to measure the intravesical pressure, the voided volume, and the residual urine volume. After the completion of the measurement, the blood was collected under deep isoflurane anesthesia, and then the prostate (ventral prostate, dorsolateral prostate), the seminal vesicle, the bladder, and the kidney were extracted and were each weighed. Moreover, the blood glucose level in the collected blood was measured.\nThe test substances and the dosage in the test system (rats having the urination disorder associated with diabetes) are as follows. • Normal group: citrate buffer 10 mL/kg (intraperitoneal administration), 0.5% P 10 mL/kg (oral administration) (n=10) • Solvent group (control group): STZ 50 mg/kg (intraperitoneal administration), 0.5% P 10 mL/kg (oral administration) (n=10) • Group A3: STZ 50 mg/kg (intraperitoneal administration), Compound A 3 mg/kg (oral administration) (n=10) • Group A10: STZ 50 mg/kg (intraperitoneal administration), Compound A 10 mg/kg (oral administration) (n=9)\nThe resulting data of the intravesical pressure, the voided volume, and the residual urine volume were analyzed, and the bladder capacity (mL), the residual urine volume […], and the urination efficiency (%) were determined as urination parameters in each urination. With respect to these urination parameters, the average value of two measurements was calculated and was taken as a measured value of each individual. […]"}, "[3]": {"conditions": "STZ diabetes model, 3 mg/kg, vs solvent group"}, "[4]": {"conditions": "STZ diabetes model, 10 mg/kg, vs solvent group"}, "[5]": {"conditions": "STZ diabetes model, Group A3 and Group A10 (3 and 10 mg/kg)"}, "[6]": {"conditions": "STZ diabetes model, oral 3 mg/kg"}, "[7]": {"conditions": "STZ diabetes model, oral 10 mg/kg"}},
  "data": [
    {"molecule": "CC(=O)O[C@]1(C(C)=O)C[C@@H](O)[C@H]2[C@@H]3C=C(Cl)C4=CC(=O)OC[C@]4(C)[C@H]3CC[C@@]21C", "note": "[Compound A, 17α-acetoxy-6-chloro-15β-hydroxy-2-oxa-4,6-pregnadiene-3,20-dione]", "values": [
      {"measurement": "inhibition at 3 mg/kg", "setting": "[1]; Rattus norvegicus, 192 h, ovariectomized rats, estrone + progesterone, oral 3 mg/kg once a day 8 days, compared with the solvent group, read-out: inhibition rate (increase of uterine weight, deciduoma formation)", "value": 15, "unit": "%"},
      {"measurement": "inhibition at 10 mg/kg", "setting": "[1]; Rattus norvegicus, 192 h, ovariectomized rats, estrone + progesterone, oral 10 mg/kg once a day 8 days, compared with the solvent group, read-out: inhibition rate (increase of uterine weight, deciduoma formation)", "value": 63, "unit": "%"},
      {"measurement": "inhibition at 30 mg/kg", "setting": "[1]; Rattus norvegicus, 192 h, ovariectomized rats, estrone + progesterone, oral 30 mg/kg once a day 8 days, compared with the solvent group, read-out: inhibition rate (increase of uterine weight, deciduoma formation)", "value": 83.3, "unit": "%"},
      {"measurement": "antiprogesterone activity", "setting": "[1]; ovariectomized rats, 3, 10, 30 mg/kg oral", "value": "has an antiprogesterone activity"},
      {"measurement": "bladder capacity, cystometry (CMG) under awake condition", "setting": "[2]; [3]", "value": "significantly reduced"},
      {"measurement": "residual urine volume, cystometry (CMG) under anesthesia", "setting": "[2]; [3]", "value": "significantly decreased"},
      {"measurement": "residual urine volume, cystometry (CMG) under awake condition", "setting": "[2]; [3]", "value": "significantly reduced"},
      {"measurement": "urination efficiency, cystometry (CMG) under awake condition", "setting": "[2]; [3]", "value": "improved"},
      {"measurement": "bladder capacity, cystometry (CMG) under awake condition", "setting": "[2]; [4]", "value": "significantly reduced"},
      {"measurement": "residual urine volume, cystometry (CMG) under anesthesia", "setting": "[2]; [4]", "value": "significantly decreased"},
      {"measurement": "residual urine volume, cystometry (CMG) under awake condition", "setting": "[2]; [4]", "value": "significantly reduced"},
      {"measurement": "bladder capacity, cystometry (CMG) under anesthesia", "setting": "[2]; STZ diabetes model, 10 mg/kg, vs solvent group (P=0.0336, Williams's multiple comparison test)", "value": "reduced"},
      {"measurement": "urination efficiency, cystometry (CMG) under awake condition", "setting": "[2]; STZ diabetes model, 10 mg/kg, vs solvent group (P=0.0359, Williams's multiple comparison test)", "value": "significantly improved"},
      {"measurement": "action on the body weight, the blood glucose level, or the bladder and kidney weights", "setting": "[2]; [5]", "value": "no action or influence"},
      {"measurement": "urination efficiency, cystometry (CMG) under anesthesia", "setting": "[2]; [5]", "value": "improved"},
      {"measurement": "bladder contraction force on urination by nomogram analysis", "setting": "[2]; STZ diabetes model, Group A3 and Group A10 (3 and 10 mg/kg), in comparison with the solvent group", "value": "strong bladder contraction force"},
      {"measurement": "prostate and seminal vesicle weights", "setting": "[2]; STZ diabetes model, Group A3 and Group A10 (3 and 10 mg/kg), vs solvent group", "value": "significantly decreased"},
      {"measurement": "therapeutic effect on diabetes", "setting": "[2]; STZ diabetes model, blood glucose level of Group A3 and Group A10 relative to the solvent group", "value": "no therapeutic effect"},
      {"measurement": "Bladder weight", "setting": "[2]; [6]", "value": "79.3 ± 17.5", "unit": "mg/100 g body weight"},
      {"measurement": "Blood glucose level", "setting": "[2]; [6]", "value": "912.8 ± 177.3", "unit": "mg/dL"},
      {"measurement": "Kidney weight", "setting": "[2]; [6]", "value": "1114.9 ± 189.2", "unit": "mg/100 g body weight"},
      {"measurement": "Prostate weight, dorsolateral prostate", "setting": "[2]; [6]", "value": "35.3 ± 7.8", "unit": "mg/100 g body weight"},
      {"measurement": "Prostate weight, ventral prostate", "setting": "[2]; [6]", "value": "62.2 ± 11.4", "unit": "mg/100 g body weight"},
      {"measurement": "Prostate weight, whole", "setting": "[2]; [6]", "value": "97.5 ± 17.7", "unit": "mg/100 g body weight"},
      {"measurement": "Seminal vesicle weight", "setting": "[2]; [6]", "value": "44.3 ± 9.6", "unit": "mg/100 g body weight"},
      {"measurement": "Dorsolateral prostate atrophy rate", "setting": "[2]; [6]", "value": "(44.2%)"},
      {"measurement": "Seminal vesicle atrophy rate", "setting": "[2]; [6]", "value": "(41.8%)"},
      {"measurement": "Ventral prostate atrophy rate", "setting": "[2]; [6]", "value": "(43.0%)"},
      {"measurement": "Whole prostate atrophy rate", "setting": "[2]; [6]", "value": "(43.4%)"},
      {"measurement": "Bladder weight", "setting": "[2]; [7]", "value": "72.9 ± 11.6", "unit": "mg/100 g body weight"},
      {"measurement": "Blood glucose level", "setting": "[2]; [7]", "value": "846.7 ± 342.5", "unit": "mg/dL"},
      {"measurement": "Kidney weight", "setting": "[2]; [7]", "value": "1171.0 ± 213.3", "unit": "mg/100 g body weight"},
      {"measurement": "Prostate weight, dorsolateral prostate", "setting": "[2]; [7]", "value": "28.8 ± 6.1", "unit": "mg/100 g body weight"},
      {"measurement": "Prostate weight, ventral prostate", "setting": "[2]; [7]", "value": "53.1 ± 13.5", "unit": "mg/100 g body weight"},
      {"measurement": "Prostate weight, whole", "setting": "[2]; [7]", "value": "81.9 ± 19.0", "unit": "mg/100 g body weight"},
      {"measurement": "Seminal vesicle weight", "setting": "[2]; [7]", "value": "37.9 ± 6.4", "unit": "mg/100 g body weight"},
      {"measurement": "Dorsolateral prostate atrophy rate", "setting": "[2]; [7]", "value": "(54.5%)"},
      {"measurement": "Seminal vesicle atrophy rate", "setting": "[2]; [7]", "value": "(50.2%)"},
      {"measurement": "Ventral prostate atrophy rate", "setting": "[2]; [7]", "value": "(51.3%)"},
      {"measurement": "Whole prostate atrophy rate", "setting": "[2]; [7]", "value": "(52.5%)"},
      {"measurement": "Body weight", "setting": "[2]; oral 3 mg/kg once a day on weekdays 4 weeks", "value": "327.5 ± 51.3", "unit": "g"},
      {"measurement": "Body weight", "setting": "[2]; oral 10 mg/kg once a day on weekdays 4 weeks", "value": "356.4 ± 80.9", "unit": "g"}
    ]}
  ]
}
